Counter-ions that a name gives are not always drawn. Peptide text beside a SMILES is read from it. * marks the point of attachment. Cbz = O=C(OCc1ccccc1)*; CH2F = FC*
How the values were obtained:
Format in all cases: cell-based, human
MDA-MB-231 cells = assay: Dose response assay, ATPlite viability, four days; conditions: MDA-MB-231, four days of treatment, ATP viability
Description: (§1) Cells were seeded in white 96-well plates (Costar, Tewksbury, MA, USA) in 100 μL of their respective media at varying densities to achieve 80% to 90% confluency after five days in culture. The compounds dissolved in DMSO were diluted in their corresponding media containing 2% FBS and an EP Motion 5075 (Eppendorf North America, Hauppauge, NY, USA) liquid handler was utilized to perform a serial dilution. […] After the cells were cultured for 24 hours, the media were aspirated and the cells were treated with the compounds and vehicle controls in triplicate. After four days of treatment, viability was determined utilizing the ATPlite 1step assay system (Perkin Elmer, Waltham, MA, USA) according to the manufacturer's instructions. Luminescence measurements were acquired utilizing a Perkin Elmer 2104 EnVision plate reader. Raw luminescence values were normalized to the DMSO vehicle control wells.

T47D cells = assay: Dose response assay, ATPlite viability, four days; conditions: four days of treatment, ATP viability
Description: as §1

PE1008032 cells = assay: Dose response assay, ATPlite viability, four days; conditions: PE1008032, four days of treatment, ATP viability
Description: as §1

PE904557a cells = assay: Dose response assay, ATPlite viability, four days; conditions: four days of treatment, ATP viability, N/A = data could not be fitted
Description: as §1

MCF-7 cells [1] = assay: Dose response assay, ATPlite viability, four days; conditions: MCF-7, four days of treatment, ATP viability
Description: as §1

PE1007070 cells = assay: Dose response assay, ATPlite viability, four days; conditions: PE1007070, four days of treatment, ATP viability
Description: as §1

MCF-7 cells [2] = assay: Pan-caspase inhibitor effect on C-6 induced cell death; conditions: data not shown
LC3A/B-II = assay: Western blot for LC3A/B-II (autophagy); conditions: most cells, 50 μM, 24 hours
Description: Cells were lysed in cold radioimmunoprecipitation assay buffer (50 mM Tris HCl, 150 mM NaCl, 0.1% sodium dodecyl sulfate (SDS), 0.5% sodium deoxycholate, 1% Triton X-100, pH = 8.0) supplemented with protease inhibitor cocktail (Sigma), phosphatase inhibitor cocktail 2 (Sigma) and 1 mM dithiothreitol (DTT) (Sigma). The lysate was sonicated for 30 seconds using a 450 Sonifier (Branson Ultrasonics, Danbury, CT, USA) and was centrifuged at 14,000 RPM for five minutes at 4°C. The protein concentration was determined using the BCA protein assay kit (Peirce, Rockford, IL, USA) and the samples were boiled for five minutes with 4× SDS Laemmli buffer. Equal amounts of protein were resolved on SDS polyacrylamide gels and transferred to an Immobilon-FL PVDF membrane (EMD Millipore). Blots were blocked in Odyssey Blocking Buffer (LI-COR, Lincoln, NE, USA) for one hour at room temperature, stained with primary antibodies overnight at 4°C, washed, and stained with IR800CW or IR680 anti-mouse or rabbit secondary antibodies (LI-COR) for one hour at room temperature. Blots were imaged with the Odyssey Infrared Imaging System (LI-COR).

[3] = Homo sapiens, 96 h, N/A = data could not be fitted

EC50 (MDA-MB-231 cells; Homo sapiens, 96 h)	EC50 (T47D cells; Homo sapiens, 96 h)	EC50 (MCF-7 cells [1]; Homo sapiens, MCF7, 96 h)	SMILES	EC50 (PE1008032 cells; [3])	EC50 (PE904557a cells; Homo sapiens, 96 h)	EC50 (PE1007070 cells; [3])	further results
35 nM	33 nM	5.71 nM	CC(C)C[C@H](NC(=O)[C@H](Cc1ccccc1)NC(=O)c1cnccn1)B(O)O [Bortezomib, bortezomib]	3.33 nM	32 nM	14.6 nM	–
110 nM	192 nM	261 nM	COc1cccc2c1C(=O)c1c(O)c3c(c(O)c1C2=O)C[C@@](O)(C(=O)CO)C[C@@H]3O[C@H]1C[C@H](N)[C@H](O)[C@H](C)O1 [Doxorubicin, doxorubicin hydrochloride]	346 nM	736 nM	677 nM	–
9.63 nM	6.29 nM	2.73 nM	Nc1ccn([C@@H]2O[C@H](CO)[C@@H](O)C2(F)F)c(=O)n1 [Gemcitabine, gemcitabine hydrochloride]	–	–	–	–
2.52 nM	13.7 nM	0.299 nM	CC(=O)O[C@H]1C(=O)[C@@]2(C)[C@H]([C@H](OC(=O)c3ccccc3)[C@]3(O)C[C@H](OC(=O)[C@H](O)[C@@H](NC(=O)c4ccccc4)c4ccccc4)C(C)=C1C3(C)C)[C@]1(OC(C)=O)CO[C@@H]1C[C@@H]2O [Taxol, paclitaxel]	–	–	–	–

Second part, the molecule before the results:

SMILES	EC50 (MDA-MB-231 cells; Homo sapiens, 96 h)	EC50 (T47D cells; Homo sapiens, 96 h)	EC50 (MCF-7 cells [1]; Homo sapiens, MCF7, 96 h)	EC50 (PE1008032 cells; [3])	EC50 (PE904557a cells; Homo sapiens, 96 h)	EC50 (PE1007070 cells; [3])	further results
C=CCNC1=C2C[C@@H](C)C[C@H](OC)[C@H](O)[C@@H](C)/C=C(\C)[C@H](OC(N)=O)[C@@H](OC)/C=C\C=C(/C)C(=O)NC(=CC1=O)C2=O [17-AAG, 17-(allylamino)-17-demethoxygeldanamycin]	–	–	–	–	–	–	EC50 (MDA-MB-231 cells): 1500 nM; EC50 (T47D cells): 1410 nM; EC50 (PE1008032 cells): 1660 nM; EC50 (PE904557a cells): 36.8 nM; EC50 (MCF-7 cells [1]): 867 nM; EC50 (PE1007070 cells): 1150 nM
N.N.[Cl][Pt][Cl] [Cisplatin, cis-diammineplatinum (II) dichloride]	–	–	–	–	–	–	EC50 (MDA-MB-231 cells): 6880 nM; EC50 (T47D cells): 50200 nM; EC50 (PE1008032 cells): 19400 nM; EC50 (MCF-7 cells [1]): 8670 nM; EC50 (PE1007070 cells): 10100 nM
Cc1[nH]c2ccccc2c1CCNCc1ccc(/C=C/C(=O)NO)cc1 [LBH589, panobinostat]	23.1 nM	31 nM	21.6 nM	13.7 nM	90.5 nM	185 nM	–
COC(=O)C[C@H](NC(=O)[C@H](C)NC(=O)[C@@H](NC(=O)OCc1ccccc1)C(C)C)C(=O)CF [Z-VAD-FMK] (Cbz-Val-Ala-Asp(OMe)-CH2F)	–	–	–	–	–	–	effect on C-6 induced cell death (MCF-7 cells [2]): did not affect
CCN(CC)CCCC(C)Nc1ccnc2cc(Cl)ccc12 (stereo not shown) [chloroquine, Chloroquine]	–	–	–	–	–	–	LC3A/B-II levels (LC3A/B-II): significant increase

Source: publication PMC4028696, “Development of a screen to identify selective small molecules active against patient-derived metastatic and chemoresistant breast cancer cells” (Breast Cancer Research : BCR, 2013)
